# Where two headings read alike, the source gives them in different places.
# Assays:
# [1] = Rat pharmacokinetics and brain penetration (IV and PO); type: in vivo; settings: male, SD, 3 mg/kg IV, 10 mg/kg PO; for Kp / Kp uu: brain and plasma; for Kp / Kp uu / clearance / bioavailability / half-life: Rat; for Kp: read-out: Kp (brain/plasma drug concentration ratio); for Kp uu: read-out: Kp, uu (unbound brain/unbound plasma drug concentration ratio); for clearance / bioavailability / half-life: plasma; for bioavailability: read-out: F % (oral bioavailability); for half-life: read-out: t½ (converted)
# Protocol: Example 29: Pharmacokinetics and Brain Penetration Experiment to Determine Brain and Plasma Concentrations of Compounds After IV Administration to Male CD1 Mice or Male SD Rat
# The study design consisted of 2 groups (24 animals and 18 animals) and administrating the drug [IV: 3 mg/kg (1.5 mL/kg) via foot dorsal vein], [PO: 10 mg/kg (5 mL/kg) via oral gavage] and collecting samples at terminal bleeding for plasma, brain and CSF at 0.25, 0.5, 1, 4, 8 and 24 hr. The IV and PO dosing solutions were prepared in 50 mM citrate buffer (pH 4.0) at 2 mg/mL. The blood collection was performed as follows: the animal was restrained manually at the designated time points, approximately 150 μL of blood sample was collected via cardiac puncture vein into EDTA-2K tubes. The blood samples were maintained in wet ice first and centrifuged to obtain plasma (2000 g, 4° C., 5 min) within 15 minutes post sampling. The brain collection was performed as follows: a mid-line incision was made in the animal's scalp and the skin was retracted. Using small bone cutters and rongeurs, the skull overlying the brain was removed. The brain was removed using a spatula and rinsed with cold saline. The brain was placed in screw-top tubes and then stored under −70° C. until analysis. The CSF collection was performed as follows: the animal was euthanized under deep anesthesia with air bubble tail vein injection. The CSF was collected by direct puncture of butterfly needle into the cisterna magna, using the occipital bone and the wings of the atlas as landmarks. A piece of white paper was used as a background to monitor color change in the sample just above the needle during collection. Upon observation of color change, the PE tubing was quickly clamped off above the color change and cut just above the clamped site. The clear sample was drawn into the syringe.
# Plasma Samples Preparation:
# An aliquot of 30 μL sample was added with 100 MeCN containing 100 ng/mL IS (Dexamethasone). The mixture was vortexed for 10 min and centrifuged at 5800 rpm for 10 min. An aliquot of 40 μL supernatant was added with 40 μl H2O and the mixture was vortexed for 5 min. An aliquot of 2 μL supernatant was injected for LC-MS/MS analysis.
# Brain Samples Preparation:
# The sample was homogenized with 3 volumes (v/w) of PBS. An aliquot of 30 μL sample was added with 100 μL ACN containing 100 ng/mL IS (Dexamethasone). The mixture was vortexed for 10 min and centrifuged at 5800 rpm for 10 min. An aliquot of 40 μL supernatant was added with 40 μl H2O and the mixture was vortexed for 5 min. An aliquot of 2 μL supernatant was injected for LC-MS/MS analysis.
# An aliquot of 10 μL sample was added with 10 μLMeOH/H2O (1/1) and […], ACN containing 200 ng/mL IS (Dexamethasone) 120 μL H2O. The mixture was vortexed for 5 min. An aliquot of 2 μL supernatant was injected for LC-MS/MS analysis.
# The sample analysis was performed on UPLC-MS/MS-02 (Triple Quad 4000) under the following conditions: positive ion, ESI, MRM detection using dexamethasone as internal standard. HPLC conditions: mobile phase A: H2O-0.1% FA, mobile phase B: MeCN-0.1% FA on ACQUITY UPLC HSS T3 (2.1×50 mm, 1.8 μm) column at 60° C.
# brain proteins = assay: Fraction of drug unbound to brain proteins, mouse; type: in vitro ADME
# plasma proteins = assay: Fraction of drug unbound to plasma proteins, mouse; type: in vitro ADME; settings: Mouse plasma proteins (Table 10)
# [2] = Rat brain, read-out: AUClast (b)
# [3] = Rat plasma, read-out: AUClast (p)
SMILES,Kp [1],Kp uu [1],clearance [1] [mL/min/kg],bioavailability [1] [%],half-life [1] [h],"AUC(0-t) [1, 2] [ng·h/mL]","AUC(0-t) [1, 3] [ng·h/mL]",Fu (b) % (brain proteins; Mouse brain proteins (Table 10)) [%],Fu (p) % (plasma proteins) [%],Fu (b) (brain proteins; Mouse brain proteins (Table 13)) [%]
"CN1CCN(c2cccc3nc([C@@H]4CCC[C@H](c5ncccc5Cl)N4)cn23)CC1 (single isomer, unassigned) [Compound I-189]",4.03,0.99,68.8,25.4,8.14,2300,570,–,–,–
CN1CCN(c2cccc3nc([C@H]4CCC[C@@H](c5ncccc5Cl)N4)cn23)CC1 (racemic) [Compound I-149],8.4,1.6,127,37.9,6.7,3820,457,–,–,–
Cc1cccnc1[C@@H]1CCC[C@H](c2cn3c(N4CCN(C)CC4)cccc3n2)N1 [Compound I-187],–,–,–,–,–,–,–,7.1,24.9,–
Cc1cccnc1[C@@H]1CCC[C@H](c2nc3cccc(N4CCN(C)CC4)n3c2Cl)N1 [Compound I-146],1.82,0.18,24.3,70.1,7.89,7800,4280,–,5.3,–
"CN1CCN(c2cccc3nc([C@H]4CCC[C@@H](c5ncccc5Cl)N4)cn23)CC1 (single isomer, unassigned) [Compound I-188]",5.65,1.04,74.3,36.9,6.87,4470,791,–,–,5.4

# — patent US10759796B2, “CXCR4 inhibitors and uses thereof” (X4 Pharmaceuticals, Inc., priority 2016, dated 2020)
